Test results: article PMC7721589, “Synthesis and structure-activity relationships for tetrahydroisoquinoline-based inhibitors of Mycobacterium tuberculosis” (Bioorganic & Medicinal Chemistry, 2020)
Values after ≈ are worked out from the molar mass of the structure shown.

Key:
[1] = Microsomal clearance in mouse liver microsomes; note: unit not given here
[2] = target: human mitochondrial ATP synthase (Homo sapiens, UniProt P00846+P05496); experiment: Inhibition of human mitochondrial ATP synthase; assay type: biochemical
Chain of human mitochondrial ATP synthase (P05496 62-136): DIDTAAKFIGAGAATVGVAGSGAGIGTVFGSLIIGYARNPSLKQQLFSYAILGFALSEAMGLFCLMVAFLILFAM
Chain of human mitochondrial ATP synthase (P00846 whole entry): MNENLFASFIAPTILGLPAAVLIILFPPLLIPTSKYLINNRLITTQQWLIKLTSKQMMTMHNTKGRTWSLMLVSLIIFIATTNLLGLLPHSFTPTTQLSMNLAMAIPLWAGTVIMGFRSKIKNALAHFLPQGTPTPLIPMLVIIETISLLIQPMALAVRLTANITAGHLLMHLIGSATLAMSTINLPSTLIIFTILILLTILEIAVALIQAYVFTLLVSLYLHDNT
Chain of human mitochondrial ATP synthase (P06576 48-529, further chain): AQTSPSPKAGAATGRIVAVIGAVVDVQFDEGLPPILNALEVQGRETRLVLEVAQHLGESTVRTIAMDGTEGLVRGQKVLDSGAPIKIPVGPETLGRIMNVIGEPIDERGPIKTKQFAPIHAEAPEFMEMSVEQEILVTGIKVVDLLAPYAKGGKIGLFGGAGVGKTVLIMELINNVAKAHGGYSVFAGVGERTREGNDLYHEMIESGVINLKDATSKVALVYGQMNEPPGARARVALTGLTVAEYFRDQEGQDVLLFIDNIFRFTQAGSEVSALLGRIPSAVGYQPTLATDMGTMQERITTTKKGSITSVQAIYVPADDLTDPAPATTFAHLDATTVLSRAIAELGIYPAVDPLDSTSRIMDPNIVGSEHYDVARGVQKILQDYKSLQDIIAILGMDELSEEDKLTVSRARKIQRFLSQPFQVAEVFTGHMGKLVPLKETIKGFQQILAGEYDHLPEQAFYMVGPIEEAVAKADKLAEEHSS
Chain of human mitochondrial ATP synthase (P25705 44-553, further chain): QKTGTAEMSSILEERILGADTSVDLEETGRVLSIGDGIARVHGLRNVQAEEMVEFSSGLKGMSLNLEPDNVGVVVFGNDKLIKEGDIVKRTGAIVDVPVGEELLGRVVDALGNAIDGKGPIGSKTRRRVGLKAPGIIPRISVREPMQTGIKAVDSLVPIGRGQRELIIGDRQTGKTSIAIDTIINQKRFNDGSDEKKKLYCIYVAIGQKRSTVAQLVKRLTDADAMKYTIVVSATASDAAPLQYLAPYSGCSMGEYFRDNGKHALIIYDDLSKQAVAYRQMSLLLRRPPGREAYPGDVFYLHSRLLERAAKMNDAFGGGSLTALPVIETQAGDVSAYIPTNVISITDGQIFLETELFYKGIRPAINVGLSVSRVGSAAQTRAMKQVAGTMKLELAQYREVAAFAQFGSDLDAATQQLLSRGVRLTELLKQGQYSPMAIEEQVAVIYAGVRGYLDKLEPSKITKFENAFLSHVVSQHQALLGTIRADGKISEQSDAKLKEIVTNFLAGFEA
Chain of human mitochondrial ATP synthase (P30049 23-168, further chain): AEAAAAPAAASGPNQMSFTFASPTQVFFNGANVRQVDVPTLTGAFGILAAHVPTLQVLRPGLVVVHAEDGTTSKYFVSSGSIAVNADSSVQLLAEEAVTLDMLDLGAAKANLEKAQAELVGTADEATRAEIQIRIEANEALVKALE
Chain of human mitochondrial ATP synthase (P36542 26-298, further chain): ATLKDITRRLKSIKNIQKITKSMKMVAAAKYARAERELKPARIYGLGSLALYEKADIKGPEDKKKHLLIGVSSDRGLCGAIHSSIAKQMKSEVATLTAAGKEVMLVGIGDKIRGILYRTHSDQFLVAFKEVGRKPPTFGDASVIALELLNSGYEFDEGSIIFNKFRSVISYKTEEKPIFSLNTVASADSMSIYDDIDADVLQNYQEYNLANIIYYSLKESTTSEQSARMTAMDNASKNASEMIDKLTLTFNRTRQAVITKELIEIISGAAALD

[3] = Microsomal clearance in human liver microsomes; note: unit not given here
[4] = test system: Vero green monkey-derived epithelial kidney cells; experiment: Mammalian cytotoxicity in Vero cells; assay type: cell-based; settings: Table 1
M.tb strain H37Rv [5] = experiment: MIC against M.tb H37Rv under non-replicating (LORA) conditions; settings: MIC90, Table 1
[6] = target: M. smegmatis ATP synthase (Mycolicibacterium smegmatis, UniProt A0R205+A0R206); experiment: Inhibition of mycobacterial ATP synthase; assay type: biochemical; settings: M. smegmatis ATP synthase
M.tb strain H37Rv [7] = experiment: MIC against M.tb H37Rv under aerobic (replicating; MABA) conditions; assay type: cell-based, Mycobacterium tuberculosis; settings: MIC90, Table 1
[8] = Stability in CDCl3 solution; assay type: physicochemical; settings: over 1–2 days
From the text: Note: The X = OMe compounds 8 and 9 were unstable in CDCl3 solution over 1–2 days.

Row | Compound | MLM Clint [1] | Mamm. ATPsynth IC50 [2] [µg/mL] | HLM Clint [3] | IC50 VERO [4] [µg/mL] | MIC LORA (M.tb strain H37Rv [5]) [µg/mL] | M. smeg ATPsynth IC50 [6] [µg/mL] | MIC MABA (M.tb strain H37Rv [7]) [µg/mL] | stability in CDCl3 solution [8]
1 | COc1ccc(N2CCN(C)CC2)c2c1CCN(C(=O)Nc1ccc(-c3ccc(Cl)cc3C)cn1)C2 [Compound 8, N-(5-(4-Chloro-2-methylphenyl)pyridin-2-yl)-5-methoxy-8-(4-methylpiperazin-1-yl)-3,4-dihydroisoquinoline-2(1H)-carboxamide] | 42 | 16 | 17 | 12 (≈ 23.7 µM) | 3.6 (≈ 7.11 µM) | 4.2 | 1.9 (≈ 3.75 µM) | unstable
2 | N-(5-(4-chloro-2-methylphenyl)pyridin-2-yl)-5-methyl-8-(4-methylpiperazin-1-yl)-3,4-dihydroisoquinoline-2(1H)-carboxamide [Compound 6] | 35 | 23 | 22 | 22 | 2.4 | 5.5 | 1.9 | –
